Key:
[1] = In vitro metabolic stability in human liver microsome suspensions; format: in vitro ADME
Method: (§1) The stability time course samples were prepared and extracted immediately by protein precipitation method using acetonitrile containing 575 ng/mL carbutamide, 100 ng/mL loxapine and 10 ng/mL longdaysin as the internal standard (IS). The samples were analyzed on a Waters Acquity UPLC system coupled with a mass dspectrometer. The peak area ratios of respective extracted ion chromatograms were used for relative comparison.
(§2) 300 μL of the above 2.0 μM combo solutions were added into 1.5 mL of Eppendof tubes. The samples were put in 37° C. incubator for 10 minutes. Then 300 of 37° C. pre-warmed 0.35 mg/mL of human liver microsome (or 37.5 pmol/mL CYP3A4, or 25 pmol/mL CYP2D6) and 2.6 mM NADPH in 100 mM potassium phosphate buffer pH 7.4 (contains 3.3 mM MgCl2) was added to initiate the enzyme activity. 50.0 μL of the reaction mixture was put into 150 μL of acetonitrile with 100 ng/mL loxapine, 10 ng/ml longdaysin (IS) to stop the reaction at 0′, 15′, 30′, 60′, 2 hours, 3 hours and 4 hours. The samples were vortexed and centrifuged at 13,000 g for approximately 5 min, then supernatants were taken and stored in −20° C. freezer. After the last samples were taken and they were placed in −20° C. at least 1 hour. All samples were put into a refrigerator at approximate 4° C. for 30 min. The samples were vortexed. […]

CYP2D6 = CYP2D6 (Homo sapiens, UniProt P10635); assay: In vitro metabolic stability on incubation with CYP2D6; format: in vitro ADME
Method: as §1, §2

Chain of CYP2D6 (P10635 whole entry): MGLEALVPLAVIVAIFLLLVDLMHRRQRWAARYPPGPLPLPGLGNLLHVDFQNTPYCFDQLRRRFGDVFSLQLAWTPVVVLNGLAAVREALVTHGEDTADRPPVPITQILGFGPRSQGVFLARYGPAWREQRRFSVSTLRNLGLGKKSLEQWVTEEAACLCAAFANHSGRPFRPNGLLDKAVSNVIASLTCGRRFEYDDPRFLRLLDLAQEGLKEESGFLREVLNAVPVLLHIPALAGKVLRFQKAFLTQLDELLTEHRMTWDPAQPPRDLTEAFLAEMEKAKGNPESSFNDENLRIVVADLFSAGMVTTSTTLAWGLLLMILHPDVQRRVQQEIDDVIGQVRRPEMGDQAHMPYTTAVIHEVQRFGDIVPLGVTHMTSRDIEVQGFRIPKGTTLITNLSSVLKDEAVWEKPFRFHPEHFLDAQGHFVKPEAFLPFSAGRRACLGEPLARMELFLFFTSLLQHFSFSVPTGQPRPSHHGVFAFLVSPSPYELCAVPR

| Compound | Concentration after incubation higher than that of the non-deuterated compound ([1]; human liver microsome, 60 min) | Half-life increased by, vs oliceridine ([1]; incubation with human liver microsome) | Half-life increased by, vs oliceridine (CYP2D6) |
| --- | --- | --- | --- |
| [2H]C([2H])(C[C@@]1(c2ccccn2)CCOC2(CC([2H])([2H])C([2H])([2H])C2)C1)NCc1sccc1OC [D6-Oliceridine-a] | 32% | 29% | 200% |
| [2H]C([2H])(C[C@@]1(c2ccccn2)CC([2H])([2H])OC2(CC([2H])([2H])C([2H])([2H])C2)C1)NCc1sccc1OC [D8-oliceridine] |  |  | 200% |
